Laboratory results published in the METLIN SMRT retention time set (Domingo-Almenara et al. 2019).

Test: gradient 5% acetonitrile 3 min, to 50% in 2 min, to 85% in 15 min, held 3 min, 100 µL/min
Details: column: Zorbax Extend-C18 2.1 x 50 mm; eluents: water / acetonitrile, 0.1% formic acid
In short: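 The mobile phases were water and acetonitrile, each with 0.1% formic acid, pumped at 100 μL/min through a Zorbax Extend-C18 column (2.1 × 50 mm, 1.8 μm). Pure standards were injected as mixtures of ~100 molecules and detected by a quadrupole time-of-flight mass spectrometer in positive and negative ionization mode. Retention time came from computationally picked adduct peaks, each inspected by hand.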

SMILES	RP-LC retention time
O=C(Cc1csc(-c2c(Cl)cccc2Cl)n1)NCCc1c[nH]c2ccccc12	925 s
COC(=O)c1cccc(-c2nc(-c3nnn(Cc4ccccc4)c3C)no2)c1	1010 s
COc1cc(NC(=O)C2CCN(S(=O)(=O)c3cc(-c4noc(C)n4)cs3)CC2)cc(OC)c1	902 s
Cc1noc(-c2cccnc2N2CCN(C(c3ccccc3)c3ccccc3)CC2)n1	742 s
O=C(Nc1ccccc1C(F)(F)F)N1CCCC1c1nncn1-c1ccccc1 (configuration not stated)	736 s
CCNc1nc(NC(C)(C)C)nc(-n2cnc(SC)n2)n1	873 s
CC1=C(C(=O)OC(C)C)C(c2cc3c(cc2Br)OCO3)NC(=O)N1 (configuration not stated)	748 s
COc1cc(=O)c(C(N)=O)nn1-c1ccc(C)cc1	612 s
O=C(CCl)NC1(C(=O)O)CCCC1	661 s
COc1nn(C)cc1C(=O)Nc1ccc(C(=O)Nc2cccc(-c3csc(C)n3)c2)cc1	748 s
CCNC(=O)N1CCCC1c1nc(C2CCOCC2)no1 (configuration not stated)	612 s
COc1ccc(-c2noc(C3CCCN3C(=O)c3cc(OC)c(OC)c(OC)c3)n2)cc1OC (configuration not stated)	828 s
Cc1ccc(Cn2c(=O)c(N3CCN(C(=O)C4CCCO4)CC3)nc3cccnc32)cc1 (configuration not stated)	998 s
CN(C)c1ccc(CNC(=O)c2nnc(-c3ccc(S(=O)(=O)N4CCCC4)cc3)o2)cc1	688 s
Clc1cccc(Nc2nnc(-c3ccccc3)c3ccccc23)c1	790 s
CCc1noc(-c2ccnc(-n3ncc(C(=O)NCC4CC4)c3C)c2)n1	1110 s
COc1ccc(-c2noc(Cn3nc(-c4cccc(OC)c4)ccc3=O)n2)cc1	974 s
CCOC(=O)c1cccc(NC(=O)c2cnc(-c3ccccc3)nc2-c2ccncc2)c1	924 s

SMILES	RP-LC retention time
Cc1nc2cccnc2n1C1CCN(C(=O)Nc2ccc3c(c2)OCCO3)CC1	612 s
CC(C)Cc1csc(-c2csc(S(=O)(=O)NC3CCCCC3)c2)n1	1320 s
Cc1nnc([C@@H]2CC(F)(F)CN2C(=O)c2ccc3ncccc3c2)o1	607 s
O=C(CN1CCC(c2nc(-c3ccc(F)cc3)no2)CC1)Nc1ccc2c(c1)OCO2	720 s
O=C(NCc1ccco1)c1csc(N2CCN(c3ccc(F)cc3)CC2)n1	991 s
O=C1CCN(C(=O)C2CCN(C(=O)c3cccs3)CC2)CCCCCCN1	639 s
COc1ccc(NC(=O)c2c(O)c3cccnc3n(-c3ccc(F)cc3)c2=O)cc1	1250 s
O=S(=O)(c1cc(-c2nnc(C3CCCC3)o2)co1)N1CCCCC1	1000 s
O=C(CCc1nc(CSc2nnc(-c3ccccc3)o2)no1)Nc1ccc(Cl)cc1	949 s
CS(=O)(=O)N1CCC(OC2CCN(C(=O)c3ccc(Cl)cc3)CC2)CC1	767 s
Cc1ccc(S(=O)(=O)N2CCC3(CC2)CC(C)(O)CCO3)cc1F (configuration not stated)	846 s
O=C(NCc1ccc2c(c1)OCO2)C1CCCN(c2ccc(=O)n(-c3cccc(Cl)c3)n2)C1 (configuration not stated)	857 s
O=C(Nc1ccc2c(c1)OCO2)C1(c2ccc(F)cc2)CC1	877 s
CCC(Oc1ccc(=O)n(-c2ccc(F)cc2)n1)C(=O)NCc1ccc(C)o1 (configuration not stated)	831 s
CC(C)n1c(=O)oc2cc(-c3noc(-c4cc(F)ccc4F)n3)ccc21	1130 s
COc1c(C(=O)NCc2cc(F)cc(F)c2)sc2ccc(F)cc12	1070 s
Cc1nc(-c2ccccc2)sc1C(=O)Nc1nc(-c2ccccc2Cl)cs1	1310 s

Results, then the molecule that gave them:

RP-LC retention time	SMILES
653 s	CCOc1ccc(C(O)CN2CCN(c3ccccc3)CC2)cc1 (configuration not stated)
674 s	CCOC(=O)c1c(S(=O)(=O)N2CCC(C(=O)NCC3CCCO3)CC2)c(C)n(C)c1C (configuration not stated)
878 s	Cc1ccc(S(=O)(=O)N2CCC(c3nc(C(=O)N(C)C)c(C)o3)CC2)cc1C
633 s	CCOC(=O)N1CCN(C(=O)C2CN(C(=O)c3c[nH]c4ccccc34)C2)CC1
878 s	Cc1nc(-c2csc(S(=O)(=O)N3CCC(C(=O)Nc4ccccc4)CC3)c2)no1
836 s	COc1ccc(CNC(=O)C2(C)Oc3cccnc3N(C(C)C)C2=O)cc1OC (configuration not stated)
608 s	CN1C(=O)c2cccn2CC1C(=O)NCC1CC1 (configuration not stated)
940 s	CCOc1ccc2nc(C(=O)NCc3ccc(OC(C)C)cc3)cn2n1
907 s	CCOC(=O)c1cc2n(n1)CC(C)(C(=O)NC1CCCC1)N(Cc1cccc(F)c1)C2=O (configuration not stated)
716 s	O=C(Cc1ccc(F)cc1)Nc1nnc(C2CC(=O)N(c3ccccc3)C2)o1 (configuration not stated)
870 s	CCCN(CC(=O)N(Cc1ccco1)CC1CCCO1)C(=O)c1ccccc1OC (configuration not stated)
596 s	CN(C)c1cc(N2CCCC(NC(=O)Cc3cccs3)C2)ncn1 (configuration not stated)
763 s	CN1C(=O)CCC2(CNC(=O)NCCc3ccccc3)CCCC=C12 (configuration not stated)
972 s	Cc1ccc(CNC(=O)C2(C)CCN(C(=O)Nc3ccc(C)c(Cl)c3)CC2)cc1
653 s	COc1cccc(NC(=O)N2CCCC(Cn3cnc4cccnc43)C2)c1 (configuration not stated)
557 s	COc1ccccc1OCC(=O)NCC1(c2cccs2)CCCC1

RP-LC retention time	SMILES
751 s	O=C(C1=CN(c2ccc(F)c(F)c2)c2ccccc2S1(=O)=O)N1CCOCC1
930 s	COc1cccc(CNC(=O)C2(C)CCCN(C(=O)Nc3ccc(C)cc3C)C2)c1 (configuration not stated)
972 s	Cc1cccc(S(=O)(=O)N2CCCC(C)(C(=O)NCc3cccc(F)c3)C2)c1 (configuration not stated)
578 s	Cn1c(N2CCC(C(=O)NC3CCN(Cc4ccccc4)CC3)CC2)cc(=O)n(C)c1=O
862 s	CC(C)n1cc(S(=O)(=O)Nc2ccc(Cl)cc2)c2cccnc21
574 s	CC(=O)N1CCCC1c1nc2ccccc2n1CC(=O)N1CCCC1 (configuration not stated)
1120 s	CCCS(=O)(=O)N1CCC2(CC1)C(=O)N(c1cccc(F)c1)C2c1ccccc1 (configuration not stated)
809 s	COc1ccccc1CNC(=O)c1ccc2c(c1)NC(=O)C1CCCCN21 (configuration not stated)
773 s	CCc1noc([C@@H]2CC(F)(F)CN2S(=O)(=O)c2cccnc2)n1
937 s	CCc1noc(NC(C)=O)c1-c1ccc(C)c(S(=O)(=O)NC2CCC(C)CC2)c1 (configuration not stated)
742 s	CC(C)c1nncn1C1CCN(S(=O)(=O)Cc2ccc(Cl)cc2)CC1
908 s	CC(C)Sc1ccc(CC(=O)NCc2ccsc2)cc1
710 s	Cc1ccc(CNC(=O)C2CCN(c3nnc(C)c4c(C)n(-c5ccccc5)nc34)CC2)o1
842 s	O=C(CSc1ccc(NC(=O)c2cccs2)nn1)Nc1ccccc1C(F)(F)F
1240 s	CCc1cccc(NC(=O)Cn2nc(N3CCCC(C)C3)c3ccccc3c2=O)c1 (configuration not stated)
959 s	CC1CN(C(=O)CSc2cn(CC(=O)N(C(C)C)C(C)C)c3ccccc23)CC(C)O1 (configuration not stated)
